Values quoted from earlier work as cited in patent US20190177284A1, “TETRAZOLYL-CONTAINING CYCLOPROPANECARBOXAMIDES” (Bayer Pharma Aktiengesellschaft, priority 2017, published 2019).

Tests used:
[1] = cited from earlier work
[2] = cited from earlier work; remark: listed apart in the source
[3] = cited from earlier work; remark: listed apart in the source
[4] = due to metabolic liability; cited from earlier work

| SMILES | aqueous solubility [1] | pharmacokinetic profile in rat [2] | human metabolic stability [3] | pharmacokinetic profile [4] |
| --- | --- | --- | --- | --- |
| C[C@@H]1CC[C@H](C)N1C(=O)c1ccc([C@@H](C)NC(=O)C2(NC(=O)c3cc(F)cc(C(F)(F)F)c3)CC2)c(F)c1 | reasonable | reasonable | poor | – |
| C[C@@H](NC(=O)C1(NC(=O)C(F)(F)F)CC1)c1ccc(-c2cccc(Cl)c2C(=O)O)cc1F [MK-0686] | – | – | – | suboptimal |
